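Here, GI50 denotes the concentration required for 50% inhibition of growth. TGI: concentration producing complete growth inhibition.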
Tests used:
Experiment in all cases: DTP human tumour cell line panel, 384-well format
SR leukemia = test system: SR leukemia
A498 renal = test system: A498 renal
UACC-62 melanoma = test system: UACC-62 melanoma
NCI-H226 lung = test system: NCI-H226 lung
COLO 205 colon = test system: COLO 205 colon
NCI/ADR-RES ovarian = test system: NCI/ADR-RES ovarian
OVCAR-5 ovarian = test system: OVCAR-5 ovarian
HT29 colon = test system: HT29 colon
UO-31 renal = test system: UO-31 renal
RXF 393 renal = test system: RXF 393 renal
MCF7 breast = test system: MCF7 breast
HOP-92 NSCLC = test system: HOP-92 NSCLC
MDA-MB-231 breast = test system: MDA-MB-231 breast
NCI-H23 lung = test system: NCI-H23 lung
SK-MEL-28 melanoma = test system: SK-MEL-28 melanoma
OVCAR-3 ovarian = test system: OVCAR-3 ovarian
OVCAR-8 ovarian = test system: OVCAR-8 ovarian
786-0 renal = test system: 786-0 renal
RPMI-8226 leukemia = test system: RPMI-8226 leukemia
TK-10 renal = test system: TK-10 renal
OVCAR-4 ovarian = test system: OVCAR-4 ovarian
MALME-3M melanoma = test system: MALME-3M melanoma
SF-295 CNS = test system: SF-295 CNS
SW-620 colon = test system: SW-620 colon
T-47D breast = test system: T-47D breast
SF-268 CNS = test system: SF-268 CNS
NCI-H322M lung = test system: NCI-H322M lung
IGROV1 ovarian = test system: IGROV1 ovarian
SNB-19 CNS = test system: SNB-19 CNS

Cc1[nH]c(/C=C2\C(=O)Nc3ccc(S(=O)(=O)Cc4c(Cl)cccc4Cl)cc32)c(C)c1C(=O)N1CCC[C@@H]1CN1CCCC1
GI50 (SR leukemia): 1310 nM | TGI (SR leukemia): 2590 nM | GI50 (A498 renal): 1630 nM | TGI (A498 renal): 2990 nM | GI50 (UACC-62 melanoma): 1060 nM | TGI (UACC-62 melanoma): 2250 nM | GI50 (NCI-H226 lung): 1930 nM | TGI (NCI-H226 lung): 3340 nM | GI50 (COLO 205 colon): 1720 nM | TGI (COLO 205 colon): 3100 nM | GI50 (NCI/ADR-RES ovarian): 1890 nM | TGI (NCI/ADR-RES ovarian): 3360 nM | GI50 (OVCAR-5 ovarian): 1930 nM | TGI (OVCAR-5 ovarian): 3370 nM | GI50 (HT29 colon): 1780 nM | TGI (HT29 colon): 3180 nM | GI50 (UO-31 renal): 1690 nM | TGI (UO-31 renal): 3070 nM | GI50 (RXF 393 renal): 1650 nM | TGI (RXF 393 renal): 3010 nM | GI50 (MCF7 breast): 1750 nM | TGI (MCF7 breast): 3130 nM | GI50 (HOP-92 NSCLC): 1880 nM | TGI (HOP-92 NSCLC): 3290 nM | GI50 (MDA-MB-231 breast): 1670 nM | TGI (MDA-MB-231 breast): 3040 nM | GI50 (NCI-H23 lung): 1020 nM | TGI (NCI-H23 lung): 6680 nM | GI50 (SK-MEL-28 melanoma): 1750 nM | TGI (SK-MEL-28 melanoma): 3130 nM | GI50 (OVCAR-3 ovarian): 1890 nM | TGI (OVCAR-3 ovarian): 3310 nM | GI50 (OVCAR-8 ovarian): 1680 nM | TGI (OVCAR-8 ovarian): 3060 nM | GI50 (786-0 renal): 1440 nM | TGI (786-0 renal): 2750 nM | GI50 (RPMI-8226 leukemia): 1250 nM | TGI (RPMI-8226 leukemia): 2500 nM | GI50 (TK-10 renal): 1820 nM | TGI (TK-10 renal): 3220 nM | GI50 (OVCAR-4 ovarian): 1740 nM | TGI (OVCAR-4 ovarian): 3130 nM | GI50 (MALME-3M melanoma): 1720 nM | TGI (MALME-3M melanoma): 3100 nM | GI50 (SF-295 CNS): 1320 nM | TGI (SF-295 CNS): 2590 nM | GI50 (SW-620 colon): 1760 nM | TGI (SW-620 colon): 3160 nM | GI50 (T-47D breast): 1740 nM | TGI (T-47D breast): 3120 nM | GI50 (SF-268 CNS): 1460 nM | TGI (SF-268 CNS): 2780 nM | GI50 (NCI-H322M lung): 1750 nM | TGI (NCI-H322M lung): 3150 nM | GI50 (IGROV1 ovarian): 1710 nM | TGI (IGROV1 ovarian): 3100 nM | GI50 (SNB-19 CNS): 1940 nM
